± gives the expanded uncertainty stated by the source.
Key:
[1] = molar heat capacity at constant pressure; xn = mol fraction of the nth substance listed; conditions: 101 kPa, Liquid, Large sample (1 g) DSC
[2] = molar heat capacity at constant pressure; conditions: 101 kPa, Liquid, Large sample (1 g) DSC

CCCCCCCC[n+]1ccn(C)c1.F[B-](F)(F)F [1-methyl-3-octylimidazolium tetrafluoroborate] + CO
molar heat capacity at constant pressure [J/K/mol], [1]
Conditions	283.15 K	288.15 K	293.15 K	298.15 K	303.15 K	308.15 K	313.15 K	318.15 K	323.15 K
x1 = 0.0736	111.8 ± 1.7	112.7 ± 1.7	113.6 ± 1.8	114.6 ± 1.8	115.6 ± 1.8	116.6 ± 1.8	117.7 ± 1.8	118.9 ± 1.8	120.1 ± 1.9
x1 = 0.1652	151.5 ± 2.3	152.6 ± 2.4	153.7 ± 2.4	154.7 ± 2.4	155.9 ± 2.4	157 ± 2.4	158.1 ± 2.4	159.3 ± 2.5	160.4 ± 2.5
x1 = 0.3441	226.4 ± 3.5	227.4 ± 3.5	228.5 ± 3.5	229.6 ± 3.6	230.8 ± 3.6	232.1 ± 3.6	233.5 ± 3.6	235 ± 3.6	236.6 ± 3.7
x1 = 0.4516	269.5 ± 4.2	270.8 ± 4.2	272.1 ± 4.2	273.5 ± 4.2	275 ± 4.3	276.6 ± 4.3	278.2 ± 4.3	279.9 ± 4.3	281.6 ± 4.4
x1 = 0.6526	349.3 ± 5.4	351.3 ± 5.4	353.3 ± 5.5	355.3 ± 5.5	357.4 ± 5.5	359.6 ± 5.6	361.8 ± 5.6	364 ± 5.6	366.4 ± 5.7
x1 = 0.8472	427.6 ± 6.6	430.3 ± 6.7	433 ± 6.7	435.7 ± 6.8	438.4 ± 6.8	441.1 ± 6.8	443.7 ± 6.9	446.3 ± 6.9	448.9 ± 7
x1 = 1	490.1 ± 7.6	493.2 ± 7.6	496.3 ± 7.7	499.4 ± 7.7	502.5 ± 7.8	505.4 ± 7.8	508.4 ± 7.9	511.3 ± 7.9	514.2 ± 8

CO [methanol]
[2]
Conditions	molar heat capacity at constant pressure [J/K/mol]
283.15 K	78.6 ± 1.2
288.15 K	79.5 ± 1.2
293.15 K	80.4 ± 1.2
298.15 K	81.3 ± 1.3
303.15 K	82.3 ± 1.3
308.15 K	83.4 ± 1.3
313.15 K	84.5 ± 1.3
318.15 K	85.7 ± 1.3
323.15 K	87 ± 1.3

CO [methanol] + CCCCCCCC[n+]1ccn(C)c1.F[B-](F)(F)F
[1], x2 = 0
Conditions	molar heat capacity at constant pressure [J/K/mol]
283.15 K	78.6 ± 1.2
288.15 K	79.5 ± 1.2
293.15 K	80.4 ± 1.2
298.15 K	81.3 ± 1.3
303.15 K	82.3 ± 1.3
308.15 K	83.4 ± 1.3
313.15 K	84.5 ± 1.3
318.15 K	85.7 ± 1.3
323.15 K	87 ± 1.3

CO [methanol] + CCCCCCn1cc[n+](C)c1.F[B-](F)(F)F
[1], x2 = 0
Conditions	molar heat capacity at constant pressure [J/K/mol]
283.15 K	78.6 ± 1.2
288.15 K	79.5 ± 1.2
293.15 K	80.4 ± 1.2
298.15 K	81.3 ± 1.3
303.15 K	82.3 ± 1.3
308.15 K	83.4 ± 1.3
313.15 K	84.5 ± 1.3
318.15 K	85.7 ± 1.3
323.15 K	87 ± 1.3

— the NIST ThermoML archive (doi:10.1016/j.jct.2007.07.001)
